Measured values: article PMC4976923, “Potent Allosteric Dengue Virus NS5 Polymerase Inhibitors: Mechanism of Action and Resistance Profiling” (PLoS Pathogens, 2016)

What was measured:
DENV1 FL NS5 = target: T1, DENV1 FL NS5 (Dengue virus type 1, UniProt P17763); assay: DENV1 FL NS5 de novo initiation FAPA assay; type: biochemical; conditions: one experiment; read-out: DENV FL NS5 de novo initiation FAPA, IC50, DENV1
T1 construct: 100 nM DENV FL NS5 protein was added; made in house
Experimental: DENV1-4 FL NS5 dnI assays were performed as described previously. Briefly, compounds from 0–20 or -100 μM concentrations are two-fold serially diluted into 384-well black opaque plates (Corning Costar), after which 100 nM DENV FL NS5 protein was added and the plates incubated at RT for 20 min. RNA and ATTO-CTP, ATP, GTP and UTP were then added and the plates incubated for another 120 min. Reactions were stopped with buffer containing 25 nM CIP, re- incubated at RT for 60 min and read on a Tecan Safire II microplate reader. For order-of-addition experiments, DENV4 FL NS5 was incubated for one hour at RT with RNA, ATP, and GTP or RNA, ATP, GTP and ATTO-CTP, followed by exposure to serially diluted compounds for 20 min at RT. The missing components (ATTO-CTP and UTP or UTP alone) were added and the reactions continued for 120 min after which STOP buffer was added as before. All datapoints were performed in duplicate wells. Each compound was tested at least twice.
2 Co mpound testing with DENV dn I FAPA assays. Final dn I assa y reaction mixtures
3 contained 100 nM DENV 5 ´UTR-L-3´UTR IVT RNA, 20 µ M ATP, 20 µM GTP, 20 µM
4 UTP, 5 µM ATTO -CTP, and 100 nM of DENV FL NS5 protein in 15 µl in assa y buffer
5 comprising 50 mM Tris/ HCl, pH 7.5, 10 mM KCl, 1 mM MgCl2, 0.3 mM MnCl2 (DENV2
6 and 4) or 1 mM MnCl 2 (DENV1 and 3), 0.001% Triton- X-100 and 10 µ M cystein e [ 1] . To
7 perform dose-respons e inhibition measurements, compounds from 0- 20 or - 100 µM
8 concentr ations are two -fold seriall y diluted into 384-well black opaqu e plat es (Corning
9 Costar), after which 100 nM DENV FL NS5 protein was added into resp ect ive wells. The
10 plates wer e sealed, b riefl y shak en and centrif uged at 1500 rpm for 30 sec and incubated at RT
11 for 15 min. Thereafter,RNA and ATTO -CTP, ATP, GTP and UTP were added to the wells to
12 start the reactions. The pl ates wer e re-seal ed, shaken and centrifuged as before, followed b y
13 incubation RT for 120 min. Reactions were stopped by addition of 10 µl of 2.5X STOP
14 buffer (200 mM NaCl, 25 mM MgCl2, 1.5M DEA, pH 10; Promega) with 25 nM calf
15 intestinal phosphatase (CIP), re- incubation at RT for 60 min and read on a Tecan Safire II
16 microplate reader. For o r der-of-addition experiments, DENV4 FL NS5 was incubated for one
17 hour at RT with RNA, ATP, and GTP or RNA, ATP, GTP and ATTO-CTP, followed by
18 exposure to seriall y dilut ed compounds for 20 mi n at RT. The missing components (ATTO-
19 CTP and UTP or UTP alone) were added and the reactions continued for 120 min after which
20 STOP buffer was added as before. All datapoints were performed in duplicate wells. Each
21 compound was tested at l east twice.
23 Compound testing in DENV1-4 infected cells by high content imaging. Approximatel y 7
24 × 10^3 A549 cells per well were s eeded into 384-well plates in Ham’s F-12K medium

DENV4 FL NS5 L512V/Q802N = target: T2, DENV4 FL NS5 L512V/Q802N (Dengue virus type 4, UniProt P09866, L2999V/Q3290N); type: binding; conditions: 50 µM compound; for Protein melting temperature, Tm, DENV4 FL NS5 L512V/Q802N: DMSO 36
T2 construct: made in house
T2 sequence (P09866 2488-3387 L2999V/Q3290N): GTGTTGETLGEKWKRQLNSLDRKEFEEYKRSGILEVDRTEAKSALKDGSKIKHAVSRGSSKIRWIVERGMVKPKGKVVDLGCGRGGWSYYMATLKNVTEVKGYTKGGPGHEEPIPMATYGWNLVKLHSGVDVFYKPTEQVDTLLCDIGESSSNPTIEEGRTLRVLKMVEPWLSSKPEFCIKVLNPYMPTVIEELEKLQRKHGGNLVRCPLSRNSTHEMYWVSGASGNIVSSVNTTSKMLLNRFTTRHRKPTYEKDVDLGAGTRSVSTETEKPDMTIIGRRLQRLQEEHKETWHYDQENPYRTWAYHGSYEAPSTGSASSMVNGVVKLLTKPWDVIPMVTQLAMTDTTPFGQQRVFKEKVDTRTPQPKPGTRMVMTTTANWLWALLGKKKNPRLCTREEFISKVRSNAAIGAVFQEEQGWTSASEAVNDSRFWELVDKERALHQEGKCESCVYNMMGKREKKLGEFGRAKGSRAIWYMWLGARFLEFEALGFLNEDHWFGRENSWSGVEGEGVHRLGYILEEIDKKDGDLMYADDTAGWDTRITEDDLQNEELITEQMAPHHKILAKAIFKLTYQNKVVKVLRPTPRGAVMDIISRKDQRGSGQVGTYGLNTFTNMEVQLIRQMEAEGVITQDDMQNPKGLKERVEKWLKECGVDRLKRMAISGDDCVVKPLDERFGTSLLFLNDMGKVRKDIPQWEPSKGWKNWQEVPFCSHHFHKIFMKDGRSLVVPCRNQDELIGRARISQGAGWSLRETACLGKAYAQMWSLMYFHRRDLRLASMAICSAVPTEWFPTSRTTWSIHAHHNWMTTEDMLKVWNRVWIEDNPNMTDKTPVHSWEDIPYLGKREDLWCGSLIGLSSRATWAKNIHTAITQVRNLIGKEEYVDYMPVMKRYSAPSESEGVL

in vitro = type: cell-based; conditions: human; 4–5 days
[1] = tested on: DENV2-NGC replicon L512V/E802D; type: cell-based; conditions: electroporated BHK-21; 2 days
DENV4, strain MY01-22713 = conditions: A549; 48 hr; read-out: DENV4 HCI, EC50 (converted); cited from earlier work

T1 sequence (P17763 2494-3392): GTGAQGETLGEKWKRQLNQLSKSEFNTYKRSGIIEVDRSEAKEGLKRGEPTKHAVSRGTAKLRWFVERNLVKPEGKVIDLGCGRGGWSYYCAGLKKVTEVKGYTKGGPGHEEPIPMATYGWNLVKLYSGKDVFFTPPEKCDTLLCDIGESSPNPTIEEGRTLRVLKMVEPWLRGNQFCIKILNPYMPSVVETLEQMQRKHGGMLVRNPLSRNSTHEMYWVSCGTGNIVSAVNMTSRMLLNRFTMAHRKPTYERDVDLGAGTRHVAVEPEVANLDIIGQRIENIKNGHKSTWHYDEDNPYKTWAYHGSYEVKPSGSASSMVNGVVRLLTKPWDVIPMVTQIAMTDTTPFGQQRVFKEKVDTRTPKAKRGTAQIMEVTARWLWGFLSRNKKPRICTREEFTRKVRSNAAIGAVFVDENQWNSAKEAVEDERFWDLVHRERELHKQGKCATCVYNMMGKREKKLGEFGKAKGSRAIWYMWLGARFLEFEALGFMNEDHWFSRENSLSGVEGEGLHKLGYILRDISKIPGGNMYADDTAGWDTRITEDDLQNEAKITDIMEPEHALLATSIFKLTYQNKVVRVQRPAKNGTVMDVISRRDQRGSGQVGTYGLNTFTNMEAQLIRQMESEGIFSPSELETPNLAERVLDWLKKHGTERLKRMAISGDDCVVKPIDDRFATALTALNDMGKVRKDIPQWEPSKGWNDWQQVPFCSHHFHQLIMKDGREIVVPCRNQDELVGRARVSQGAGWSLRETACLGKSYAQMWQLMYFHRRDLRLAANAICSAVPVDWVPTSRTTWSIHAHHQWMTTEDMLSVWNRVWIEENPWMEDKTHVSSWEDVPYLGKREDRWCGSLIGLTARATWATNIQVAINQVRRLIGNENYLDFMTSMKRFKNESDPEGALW

| SMILES | IC50 (DENV1 FL NS5) [nM] | Tm change compared to DMSO control, DENV4 FL NS5 L512V/Q802N (DENV4 FL NS5 L512V/Q802N) [°C] | Protein melting temperature, Tm, DENV4 FL NS5 L512V/Q802N (DENV4 FL NS5 L512V/Q802N) [°C] | CC50 (in vitro) [µM] | EC50 [1] [µM] | EC50 (DENV4, strain MY01-22713) [µM] |
| --- | --- | --- | --- | --- | --- | --- |
| COc1cccc(S(=O)(=O)NC(=O)c2cc(-c3ccc(C#CCO)s3)c(OC)cc2C)c1 [Compound 26i] | 24 |  |  |  |  |  |
| COc1cc(OC)c(-c2ccc(C#CCO)s2)cc1C(=O)NS(=O)(=O)c1cccc2cccnc12 [Compound 29] | 13 | -0.5 | 35.5 | > 50 | 38.8 | 10.2 |
| COc1cccc(S(=O)(=O)NC(=O)c2cc(-c3ccc(C#CCO)s3)c(OC)cc2OC)c1 [Compound 27] |  | -1 | 35 | > 50 | 28.4 | 1.8 ± 0.2 |
